Measurements reported in patent publication US20240174659A1, “COMPOUNDS AND METHODS FOR YAP/TEAD MODULATION AND INDICATIONS THEREFOR” (Opna Bio SA, priority 2021, published 2024).
Where a name gives a salt, the structure may show the parent alone.

System: TEAD-dependent transcription
Assay: Inhibitor activity against TEAD-dependent transcription in a cell-based reporter assay (MSTO-211H+12XGTIIC luciferase)
Details: Homo sapiens; MSTO-211H+12XGTIIC cells, 24 hours incubation, luciferase luminescence normalized to cell viability fluorescence, geometric mean; read-out: MSTO-211H GMean IC50 (uM) Cell Assay Reporter Cell Variant: TEAD
Source text: Determine Inhibitor Activity Against TEAD-Dependent Transcription in a Cell-Based Reporter Assay
The human mesothelioma cell line MSTO-211H was stably transfected with a pGL4.21 plasmid containing a synthetic promoter with 12 copies of the GTIIC TEAD response element that drives the expression of a luciferase reporter gene^1 using Lipofectamine transfection reagent (Thermo Fisher). Transfected cells were selected using puromycin and single cell clones expressing this construct (referred to as MSTO-211H+12XGTIIC) were generated by limiting dilution. MSTO-211H cells was characterized by genetic alterations in key components of the Hippo pathway^2, resulting in up-regulation of YAP/TEAD-mediated transcription. […] To evaluate TEAD inhibitors, the MSTO-211H+12XGTIIC cell line was seeded in a 96-well plate in 50 μL of culture media at 1×10^4 cells per well and incubated at 37° C. overnight. Serial dilutions of compounds (in total volume of 50 μL of culture media) were added to the cells and incubated at 37° C. for 24 hours. Each plate included cells treated with DMSO as high controls and cells treated with 20 μM of the reference compound K-975 (a known TEAD inhibitor)^3 as low controls. Cell viability was assayed by the addition of 25 μL of CellTiter-Fluor reagent (Promega) followed by a 30-minute incubation at 37° C. and quantification of the fluorescence signal (Ex400/Em505). Subsequently, luciferase expression was assayed by the addition of 25 μL of ONE-Glo reagent (Promega) followed by a 10-minute incubation at room temperature and quantification of the luminescence signal. The luminescence signal was normalized to the fluorescence signal to correct for any loss in cell viability over the 24-hour compound incubation period. The percentage of inhibition of normalized luminescence signal, indicative of compound-mediated inhibition of TEAD-dependent transcription, at individual compound concentrations relative to high and low controls was calculated. The data were analyzed by using nonlinear regression to generate IC50 values for individual compounds.

| Structure (SMILES) | IC50 |
| --- | --- |
| C=CC(=O)N1CCc2cc(C)c(Oc3cccc(F)c3)cc2C1 [P-0042, 1-(7-(3-fluorophenoxy)-6-methyl-3,4-dihydroisoquinolin-2(1H)-yl)prop-2-en-1-one] | 0.001 to 0.5 µM |
| C=CC(=O)N1CCc2cc(C)c(Oc3ccc(F)cc3)cc2C1 [P-0043, 1-(7-(4-fluorophenoxy)-6-methyl-3,4-dihydroisoquinolin-2(1H)-yl)prop-2-en-1-one] | 0.001 to 0.5 µM |
| C=CC(=O)N1CCc2ccc(Oc3ccc(F)c(C(F)(F)F)c3)cc2C1 [P-0044, 1-(7-(4-fluoro-3-(trifluoromethyl)phenoxy)-3,4-dihydroisoquinolin-2(1H)-yl)prop-2-en-1-one] | 0.001 to 0.5 µM |
| C=CC(=O)N1CCc2ccc(Oc3ccc(C(F)(F)F)c(F)c3)cc2C1 [P-0045, 1-(7-(3-fluoro-4-(trifluoromethyl)phenoxy)-3,4-dihydroisoquinolin-2(1H)-yl)prop-2-en-1-one] | 0.001 to 0.5 µM |
| C=CC(=O)N1CCc2ccc(Oc3cccc(C4CC4)c3)cc2C1 [P-0046, 1-(7-(3-cyclopropylphenoxy)-3,4-dihydroisoquinolin-2(1H)-yl)prop-2-en-1-one] | 0.001 to 0.5 µM |
| C=CC(=O)N1CCc2ccc(Oc3ccc(C4CC4)cc3)cc2C1 [P-0047, 1-(7-(4-cyclopropylphenoxy)-3,4-dihydroisoquinolin-2(1H)-yl)prop-2-en-1-one] | 0.001 to 0.5 µM |
| C=CC(=O)N1CCc2ccc(Oc3ccc(F)c(C4CC4)c3)cc2C1 [P-0048, 1-(7-(3-cyclopropyl-4-fluorophenoxy)-3,4-dihydroisoquinolin-2(1H)-yl)prop-2-en-1-one] | 0.001 to 0.5 µM |
| [2H]C([2H])=C([2H])C(=O)N1CCc2ccc(Oc3ccc(C(F)(F)F)c(F)c3)cc2C1 [P-0049, 1-(7-(3-fluoro-4-(trifluoromethyl)phenoxy)-3,4-dihydroisoquinolin-2(1H)-yl)prop-2-en-1-one-2,3,3-d3] | 0.001 to 0.5 µM |
| C=CC(=O)N1CCc2ccc(Oc3ccc(C4CC4)c(F)c3)cc2C1 [P-0050, 1-(7-(4-cyclopropyl-3-fluorophenoxy)-3,4-dihydroisoquinolin-2(1H)-yl)prop-2-en-1-one] | 0.001 to 0.5 µM |
| C=C(F)C(=O)N1CCc2ccc(Oc3ccc(C(F)(F)F)nc3)cc2C1 [P-0051, 2-fluoro-1-(7-((6-(trifluoromethyl)pyridin-3-yl)oxy)-3,4-dihydroisoquinolin-2(1H)-yl)prop-2-en-1-one] | 0.001 to 0.5 µM |
| C=CC(=O)N1CCc2ccc(Oc3ccc(OC(F)(F)F)cc3)cc2C1 [P-0052, 1-(7-(4-(trifluoromethoxy)phenoxy)-3,4-dihydroisoquinolin-2(1H)-yl)prop-2-en-1-one] | > 20 µM |
| C=CC(=O)N1CCc2ccc(Oc3ccc(C(F)(F)F)cn3)cc2C1 [P-0053, 1-(7-((5-(trifluoromethyl)pyridin-2-yl)oxy)-3,4-dihydroisoquinolin-2(1H)-yl)prop-2-en-1-one formate] | 0.001 to 0.5 µM |
| C=CC(=O)N1CCc2ccc(NC34CCC(CC3)CC4)cc2C1 [P-0054, 1-(7-(bicyclo[2.2.2]octan-1-ylamino)-3,4-dihydroisoquinolin-2(1H)-yl)prop-2-en-1-one formate] | 0.001 to 0.5 µM |
| C=CC(=O)N1CCc2ccc(NC3CC4(CCC4)C3)cc2C1 [P-0055, 1-(7-(spiro[3.3]heptan-2-ylamino)-3,4-dihydroisoquinolin-2(1H)-yl)prop-2-en-1-one formate] | 0.001 to 0.5 µM |
| C=CC(=O)N1CCc2ccc(N[C@H]3CC[C@H](C(F)(F)F)CC3)cc2C1 [P-0056, 1-(7-(((1r,4r)-4-(trifluoromethyl)cyclohexyl)amino)-3,4-dihydroisoquinolin-2(1H)-yl)prop-2-en-1-one] | 0.001 to 0.5 µM |
| C=CC(=O)N1CCc2ccc(Oc3cc(F)cc(F)c3)cc2C1 [P-0057, 1-(7-(3,5-difluorophenoxy)-3,4-dihydroisoquinolin-2(1H)-yl)prop-2-en-1-one] | 0.001 to 0.5 µM |
| C=CC(=O)N1CCc2ccc(Oc3cc(F)ccc3F)cc2C1 [P-0058, 1-(7-(2,5-difluorophenoxy)-3,4-dihydroisoquinolin-2(1H)-yl)prop-2-en-1-one] | 0.001 to 0.5 µM |
| C=CC(=O)N1CCc2ccc(Oc3ccccn3)cc2C1 [P-0059, 1-(7-(pyridin-2-yloxy)-3,4-dihydroisoquinolin-2(1H)-yl)prop-2-en-1-one] | > 20 µM |
| C=CC(=O)N1CCc2ccc(Oc3ccnc(C(F)(F)F)c3)cc2C1 [P-0060, 1-(7-((2-(trifluoromethyl)pyridin-4-yl)oxy)-3,4-dihydroisoquinolin-2(1H)-yl)prop-2-en-1-one] | 0.001 to 0.5 µM |

| Structure (SMILES) | IC50 |
| --- | --- |
| C=CC(=O)N1CCc2ccc(OC3CCCCC3)cc2C1 [P-0061, 1-(7-(cyclohexyloxy)-3,4-dihydroisoquinolin-2(1H)-yl)prop-2-en-1-one] | 0.001 to 0.5 µM |
| C=CC(=O)N1CCc2ccc(OC3CCC(F)(F)CC3)cc2C1 [P-0062, 1-(7-((4,4-difluorocyclohexyl)oxy)-3,4-dihydroisoquinolin-2(1H)-yl)prop-2-en-1-one] | 0.001 to 0.5 µM |
| C=CC(=O)N1CCc2ccc(Oc3ccccc3F)cc2C1 [P-0063, 1-(7-(2-fluorophenoxy)-3,4-dihydroisoquinolin-2(1H)-yl)prop-2-en-1-one] | 0.001 to 0.5 µM |
| C=CC(=O)N1CCc2ccc(OC3CCC4(CCCC4)CC3)cc2C1 [P-0064, 1-(7-(spiro[4.5]decan-8-yloxy)-3,4-dihydroisoquinolin-2(1H)-yl)prop-2-en-1-one] | 0.5 to 20 µM |
| C=CC(=O)N1CCc2ccc(N[C@H]3CC[C@@H](C(F)(F)F)CC3)cc2C1 [P-0065, 1-(7-(((1s,4s)-4-(trifluoromethyl)cyclohexyl)ami-no)-3,4-dihydroisoquinolin-2(1H)-yl)prop-2-en-1-one formate] | 0.001 to 0.5 µM |
| C=CC(=O)N1CCc2ccc(NC3CCCC3)cc2C1 [P-0066, 1-(7-(cyclopentylamino)-3,4-dihydroisoquinolin-2(1H)-yl)prop-2-en-1-one] | 0.001 to 0.5 µM |
| C=CC(=O)N1CCc2ccc(Cc3ccc(F)c(C(F)(F)F)c3)cc2C1 [P-0067, 1-(7-(4-fluoro-3-(trifluoromethyl)benzyl)-3,4-dihydroisoquinolin-2(1H)-yl)prop-2-en-1-one] | 0.001 to 0.5 µM |
| C=CC(=O)N1CCc2ccc(Cc3ccc(C(F)(F)F)c(F)c3)cc2C1 [P-0068, 1-(7-(3-fluoro-4-(trifluoromethyl)benzyl)-3,4-dihydroisoquinolin-2(1H)-yl)prop-2-en-1-one] | 0.001 to 0.5 µM |
| C=CC(=O)N1CCc2ccc(Oc3cccc(C(F)(F)F)n3)cc2C1 [P-0069, 1-(7-((6-(trifluoromethyl)pyridin-2-yl)oxy)-3,4-dihydroisoquinolin-2(1H)-yl)prop-2-en-1-one] | 0.5 to 20 µM |
| C=CC(=O)N1CCc2ccc(OC3CCCCCC3)cc2C1 [P-0070, 1-(7-(cycloheptyloxy)-3,4-dihydroisoquinolin-2(1H)-yl)prop-2-en-1-one] | 0.001 to 0.5 µM |
| C=CC(=O)N1CCc2ccc(OC3CCC(C(F)(F)F)CC3)cc2C1 (centres unmarked) [P-0071, 1-(7-((4-(trifluoromethyl)cyclohexyl)oxy)-3,4-dihydroisoquinolin-2(1H)-yl)prop-2-en-1-one] | 0.001 to 0.5 µM |
| C=CC(=O)N1CCc2ccc(Cc3ccc(C(F)(F)F)cc3)cc2C1 [P-0072, 1-(7-(4-(trifluoromethyl)benzyl)-3,4-dihydroisoquinolin-2(1H)-yl)prop-2-en-1-one] | 0.001 to 0.5 µM |
| C=CC(=O)N1CCc2ccc(Oc3ccc(Cl)c(F)c3)cc2C1 [P-0073, 1-(7-(4-chloro-3-fluorophenoxy)-3,4-dihydroisoquinolin-2(1H)-yl)prop-2-en-1-one] | 0.001 to 0.5 µM |
| C=CC(=O)N1CCc2ccc(OC3CC4(CCC4)C3)cc2C1 [P-0074, 1-(7-(spiro[3.3]heptan-2-yloxy)-3,4-dihydroisoquinolin-2(1H)-yl)prop-2-en-1-one] | 0.001 to 0.5 µM |
| C=CC(=O)N1CCc2ccc(O[C@H]3C[C@@H]4[C@H](C3)C4(F)F)cc2C1 [P-0075, 1-(7-(((1R,3r,5S)-6,6-difluorobicyclo[3.1.0]hexan-3-yl)oxy)-3,4-dihydroisoquinolin-2(1H)-yl)prop-2-en-1-one] | 0.001 to 0.5 µM |
| C=CC(=O)N1CCc2ccc(OC3CC4CCC3C4)cc2C1 (centres unmarked) [P-0076, 1-(7-(bicyclo[2.2.1]heptan-2-yloxy)-3,4-dihydroisoquinolin-2(1H)-yl)prop-2-en-1-one] | 0.001 to 0.5 µM |
| C=CC(=O)N1CCc2ccc(OC3CCC4(CC3)CC4)cc2C1 [P-0077, 1-(7-(spiro[2.5]octan-6-yloxy)-3,4-dihydroisoquinolin-2(1H)-yl)prop-2-en-1-one] | 0.001 to 0.5 µM |
| C=CC(=O)N1CCc2ccc(OCc3ccc(C(F)(F)F)cc3)cc2C1 [P-0078, 1-(7-((4-(trifluoromethyl)benzyl)oxy)-3,4-dihydroisoquinolin-2(1H)-yl)prop-2-en-1-one] | 0.5 to 20 µM |
| C=CC(=O)N1CCc2ccc(OCc3ccc(C(F)(F)F)nc3)cc2C1 [P-0079, 1-(7-((6-(trifluoromethyl)pyridin-3-yl)methoxy)-3,4-dihydroisoquinolin-2(1H)-yl)prop-2-en-1-one] | > 20 µM |
